Data published in patent publication US8895717B2, “Delivery of siRNA by neutral lipid compositions” (The Board of Regents of the University of Texas System, priority 2005, dated 2014).
Structures can show the parent of a compound that is named as a salt.

Assays:
[1] = test system: HeyA8 tumor samples; test: Mean vessel density (CD31) in HeyA8 tumor samples; type: in vivo, nude mice; settings: for MVD counts: daily agonist treatment
Experimental: Paraffin sections were stained for CD31 (1:800 dilution, Pharmingen, San Jose, Calif.), MMP-2 (1:500 dilution, Chemicon, Temecula, Calif.), MMP-9 (1:200 dilution, Calbiochem, San Diego, Calif.), VEGF (1:500 dilution, Santa Cruz Biotechnology, Santa Cruz, Calif.) and bFGF (1:1,000 dilution, Sigma, St. Louis, Mo.) at 4° C. Samples were stained with a biotinylated goat anti-rabbit antibody for 30 min (prediluted), followed by strepavidin horseradish peroxidase for 30 min (1:300 dilution), and visualized in 3,3′-diaminobenzidine (DAB) for 5-10 min.
To quantify MVD, 10 random 0.159 mm^2 fields at 100× magnification were examined for each tumor, and the microvessels within those fields were counted. A single microvessel was defined as a discrete cluster of cells stained CD31(+), and the presence of a lumen was required for scoring as a microvessel.

[2] = test system: SKOV3 cells; test: TUNEL apoptosis assay, SKOV3; type: cell-based, human; settings: SKOV3, docetaxel 72 hours without or with DEVD-fmk
Experimental: (§1) Terminal deoxynucleotidyl transferase-mediated nick end labeling-positive cells were detected using Dead End Fluorometric terminal deoxynucleotidyl transferase-mediated nick end labeling system (APO-DIRECT, BD Biosciences/PharMingen, San Diego, Calif.) according to the manufacturer's instructions. […] Cells were fixed with 4% paraformaldehyde solution for 25 minutes on ice. Intracellular DNA fragments were then labeled by exposing cells to fluorescein-12-dUTP, treated with propidium iodide and RNaseA solution, and analyzed by flow cytometry (EPICS XL, Beckman Coulter, Miami, Fla.). The percentages of apoptotic cells were averaged over three consecutive experiments.

[3] = test system: FAK; test: FAK cleavage in response to docetaxel, Western blot; type: cell-based, human; settings: in the presence of DEVD-fmk
Experimental: Cells were lysed in modified RIPA buffer (50 mM Tris, 150 mM NaCl, 1% triton, 0.5% deoxycholate plus 25 µg/ml leupeptin, 10 µg/ml aprotinin, 2 mM EDTA, and 1 mM sodium orthovanadate (Sigma Chemical Co, St. Louis, Mo.) as previously described (Sood et al., 2004; Sood et al., 2002). A sample was removed from culture dishes by cell scraping and centrifuged at 12,500 rpm for 30 min. The […] protein concentration of the supernatant was determined using a bicinchoninic acid protein assay reagent kit (Pierce, Rockford, Ill.), and whole cell lysates were analyzed by 7.5% SDS-PAGE. Samples were then transferred to nitrocellulose membrane by semi-dry transfer (BioRad Laboratories, Hercules, Calif.). Membranes were blocked with 5% nonfat milk, and incubated with 0.25 μg/mL anti-FAK antibody (Biosource, International Camarillo, Calif.) for 1 h at room temperature. Antibody was detected with 0.167 μg/mL HRP-conjugated anti-mouse secondary antibody (The Jackson Laboratory, Bar Harbor, Me.) and developed with an enhanced chemiluminescence detection kit (Pierce). Equal loading was confirmed by detection of β-actin (0.1 μg/ml, anti-β-actin antibody, Sigma Chemical). Densitometric analysis was performed using the Scion Imaging software (Scion Corporation, Frederick, Md.).
It has been reported that FAK may be cleaved by caspase-3 (Gervais et al., 1998; Sasaki et al., 2002; Carragher et al., 2001). Based on observations regarding modulation of caspase levels by docetaxel in ovarian cancer cells, FAK cleavage after treatment with docetaxel was examined and whether there are differences in extent of FAK cleavage between the taxane-sensitive and taxane-resistant cell lines. In SKOV3 cells, FAK was cleaved after 48 and 72 hours of exposure to docetaxel (FIG. 7A). The 71-kDa fragments increased after treatment with docetaxel, whereas the 125-kDa fragments decreased. […] To study the dependence of FAK cleavage on caspase-3, the effect of DEVDfmk (caspase-3 inhibitor) was examined.

[4] = test system: HeyA8 cells; test: TUNEL apoptosis assay, HeyA8; type: cell-based, human; settings: HeyA8, docetaxel 72 hours without or with DEVD-fmk
Experimental: as §1

[5] = test system: VEGF mRNA; test: VEGF mRNA expression, real-time RT-PCR; type: cell-based, human; settings: SKOV3ip1; forskolin 1 μM, db-cAMP 1 mM
Experimental: Total RNA was extracted (Trizol reagent; Invitrogen Co, Carlsbad, Calif.) and reverse transcribed using an oligo(dT) primer and M-MLV reverse transcriptase (Life Technologies, Inc., Rockville, Md.) in a final reaction volume of 20 μl (60 min at 42° C.). PCR amplifications are performed using the ABI Prism 7700 Sequence Detection System with TaqMan One-Step RT-PCR Master Mix Reagent kit (PE Applied Biosystems, Foster City, Calif.). Quantitative values are obtained from the Ct value, at which the increase in fluorescent signal associated with exponential growth of PCR products starts to be detected by the laser detector of the Sequence Detection System, using the analysis software according to the manufacturer's instructions (each sample is normalized on the basis of its I8S content). The VEGF primers were obtained from Applied Biosystems (Item number HS00173626-ml). βAR expression was examined with semi-quantitative RT-PCR using the following primers: βAR (forward, 5′-[…]-3′ (SEQ ID NO:13), reverse, 5′-[…]-3′) (SEQ ID NO:14); β2AR (forward, 5′-[…]-3′ (SEQ ID NO:15), reverse, 5′-[…]-3′) (SEQ ID NO:16).

[6] = test system: HeyA8 cells; test: Daily β-agonist treatment of mice bearing HeyA8 ovarian cancer cells; type: in vivo, nude mice; settings: terbutaline 5 mg/kg, xamoterol 1 mg/kg, isoproterenol plus propranolol 2 mg/kg, daily
Source text: Mice habituated to vivarium conditions for 1 week before the initiation of stress procedures. A restraint-stress procedure was used based on previous studies (Sheridan et al., 1991), substituting a novel Mouse Restraint System (FIG. 15A) for conical centrifuge tubes. In this system, up to 10 mice are placed in individual slots, and each slot can be adjusted to restrain the animal for a desired length of time. In the present study, restraint stress began between 8 a.m. and 10 a.m., and lasted for 2-6 hours for up to 21 days. The ovarian cancer cell lines were harvested from subconfluent cultures by a brief exposure to 0.25% trypsin and 0.02% EDTA, resuspended in Hank's balanced salt solution (HBSS), and tested for >95% viability by trypan blue dye exclusion. The HeyA8 cells were injected i.p. into mice at a concentration of 2.5×10^5 cells while the other cell lines were injected at 1.0×10^6 cells per 0.2 ml HBSS, ten days after starting stress in all groups. Animals were necropsied 21 days after tumor injection, and tumors in the peritoneal cavity were excised, weighed, and documented for location. Immunohistochemistry and H&E staining procedures were carried out on formalin-fixed paraffin-embedded tumors.
Starting 4 days after tumor cell injection, mice bearing HeyA8 ovarian cancer cells (n=10 per group) were treated daily with either 1) PBS; 2) isoproterenol (non-specific β-agonist) 10 mg/kg; 3) terbutaline (β2-agonist) 5 mg/kg; 4) xamoterol (β1-agonist) 1 mg/kg; or 5) isoproterenol plus 2 mg/kg of the non-specific β-antagonist propranolol.

[7] = test system: HeyA8 cells; test: Chronic restraint stress, HeyA8 orthotopic tumor growth; type: in vivo, nude mice; settings: propranolol Alzet pump 2 mg/kg/day
Source text: Mice habituated to vivarium conditions for 1 week before the initiation of stress procedures. A restraint-stress procedure was used based on previous studies (Sheridan et al., 1991), substituting a novel Mouse Restraint System (FIG. 15A) for conical centrifuge tubes. In this system, up to 10 mice are placed in individual slots, and each slot can be adjusted to restrain the animal for a desired length of time. In the present study, restraint stress began between 8 a.m. and 10 a.m., and lasted for 2-6 hours for up to 21 days. […] Immunohistochemistry and H&E staining procedures were carried out on formalin-fixed paraffin-embedded tumors. […] Pumps were inserted on the nape of the neck 7 days prior to initiation of restraint stress for 2 hours daily. Mice were anesthetized with inhaled methoxyflurane (Medical Developments Australia Pty. Ltd, Melbourne, Australia), and implanted with Alzet pumps containing PBS or S-propranolol hydrochloride (Sigma Co., St. Louis, Mo.) diluted in PBS at a dose of 2 mg/kg/day, which allows for chronic continuous receptor blockade, for 28 days (Aarons and Molinoff, 1982; Exton et al., 2002).

CC(C)(C)NCC(O)c1cc(O)cc(O)c1 (stereo not drawn) [terbutaline]
MVD counts [1]: significantly higher MVD counts compared to controls

COC(=O)CC[C@H](NC(=O)[C@H](CC(=O)OC)NC(=O)OCc1ccccc1)C(=O)N[C@H](C(=O)N[C@@H](CC(=O)OC)C(=O)CF)C(C)C [DEVD-fmk]
proportion of apoptotic cells [2]: 7% | docetaxel-induced FAK cleavage [3]: docetaxel-induced FAK cleavage was blocked | proportion of apoptotic cells [4]: 6%

CCCC(=O)Nc1ncnc2c1ncn2[C@@H]1O[C@@H]2COP(=O)(O)O[C@H]2[C@H]1OC(=O)CCC [dibutyryl cAMP]
effect on VEGF mRNA [5]: also increased VEGF mRNA levels

CCCCCCOC(=O)[C@]1(O)C[C@@H]2O[C@@]1(C)n1c3ccccc3c3c4c(c5c6ccccc6n2c5c31)C(=O)NC4 [KT5720]
effect on VEGF mRNA [5]: efficiently blocked the effects of norepinephrine and forskolin on VEGF mRNA expression

CC(C)NC[C@H](O)COc1cccc2ccccc12 (racemic) [propranolol, S-propranolol hydrochloride]
MVD counts [1]: blocked that increase as well | stress-induced increases in MVD counts ([1]; stressed animals): efficiently blocked stress-induced increases in MVD counts | tumor burden [6]: blocked the isoproterenol-induced increase in tumor growth | invasive disease among stressed animals [7]: 0% | effect of stress on tumor weight and number of nodules ([7]; daily 2 hour stress): stress did not significantly increase tumor weight or the number of tumor nodules | effect on VEGF mRNA [5]: blocked
